# Results from patent US9428519B2, “Acylated derivative of homoharringtonine, preparation method therefor, and application thereof” (HANGZHOU BENSHENG PHARMACEUTICAL CO., LTD., priority 2011, dated 2016).
# Legend:
# [1] = tested on: RPMI8226 (multiple myeloma); test: MTT growth inhibition of multiple myeloma cells, 72 h; assay type: cell-based, human; conditions: Homo sapiens, RPMI-8226, MTT
# Protocol: Multiple myeloma and lymphoma cell lines: RPMI8226 (multiple myeloma), purchased from Fuxiang Bio-tech Co. Ltd., Shanghai, China.
# (§1) Obtaining 6000 well-growing leukemia cells and inoculating them into wells of a 96-well cell culture plate. The culture medium is the 1640 cell culture medium containing 10% fetal bovine serum. After adding the homoharringtonine derivatives of different concentrations and mixing uniformly, placing the plate in a carbon dioxide cell incubator (5% CO2) at 37° C. and incubated for 72 hours. Then the viable cell concentration is determined by the MTT method. In this experiment, the cell viability in control group (not treated with any compound) is set as 100%. On such basis, the cell viability (%) after treatment and the 50% inhibiting concentration of the compound for the leukemia cell growth at 72 hours (IC50 value of 72 hours) are calculated.
# [2] = tested on: RKO (human colon adenocarcinoma cell); test: MTT growth inhibition of human solid tumor cells, 72 h; assay type: cell-based; conditions: Homo sapiens, MTT
# Protocol: (§2) Human solid tumor cell lines: Hep-2 (laryngeal carcinoma), A549 (human lung cancer), CaES-17 (esophageal cancer cell), PC-3 (prostate cancer), CNE (nasopharyngeal carcinoma cell), and SK-OV-3 (ovarian cancer cell), all of which are purchased from China Center For Type Culture Collection; RKO (human colon adenocarcinoma cell), MGC 803 (human gastric cancer cell), MG63 (osteosarcoma) and U87 MG (malignant glioma cell), all of which are purchased from Fuxiang Bio-tech Co. Ltd., Shanghai, China; PANC-1 (pancreatic cancer), Huh7 (human liver cancer cell), Becap37 (human breast cancer cell), and Hela (human cervical cancer cell), all of which are donated by Cancer Research Institute of Zhejiang University, China.
# (§3) Obtaining 4000 well-growing human solid tumor cells and inoculating them into wells of a 96-well cell culture plate. The culture medium is DMEM High Glucose cell culture medium containing 10% fetal bovine serum. The plate is placed in a carbon dioxide cell incubator (5% CO2) at 37° C. and incubated for 24 hours. After adding the homoharringtonine derivatives of different concentration and mixing uniformly, the plate is placed in a carbon dioxide cell incubator (5% CO2) at 37° C. and incubated for 72 hours. Then the viable cell concentration is determined by the MTT method and the cell viability (%) after drug treatment is calculated. In this experiment, the cell viability of control group (not treated with any compound) is set as 100%.
# [3] = tested on: U87 MG (malignant glioma cell); test: as above; assay type: cell-based; conditions: Homo sapiens, U-87 MG
# Protocol: as §2, §3
# [4] = tested on: Huh7 (human liver cancer cell); test: as above; assay type: cell-based; conditions: Homo sapiens, Huh-7
# Protocol: as §2, §3
# [5] = tested on: CaES-17 (esophageal cancer cell); test: as above; assay type: cell-based; conditions: Homo sapiens, CaEs17
# Protocol: as §2, §3
# [6] = tested on: PANC-1 (pancreatic cancer); test: as above; assay type: cell-based; conditions: Homo sapiens, PANC-1, MTT
# Protocol: as §2, §3
# [7] = tested on: Becap37 (human breast cancer cell); test: as above; assay type: cell-based; conditions: Homo sapiens
# Protocol: as §2, §3
# [8] = tested on: Hep-2 (laryngeal carcinoma); test: as above; assay type: cell-based; conditions: Homo sapiens, HEp-2
# Protocol: as §2, §3
# MG63 (osteosarcoma) = test: as above; assay type: cell-based
# Protocol: as §2, §3
# PC-3 (prostate cancer) = test: as above; assay type: cell-based
# Protocol: as §2, §3
# [9] = tested on: Hela (human cervical cancer cell); test: as above; assay type: cell-based
# Protocol: as §2, §3
# [10] = tested on: CNE (nasopharyngeal carcinoma cell); test: as above; assay type: cell-based
# Protocol: as §2, §3
# A549 (human lung cancer) = test: as above; assay type: cell-based; conditions: Homo sapiens, A549
# Protocol: as §2, §3
# [11] = tested on: MGC 803 (human gastric cancer cell); test: as above; assay type: cell-based; conditions: Homo sapiens, MGC-803
# Protocol: as §2, §3
# [12] = tested on: SK-OV-3 (ovarian cancer cell); test: as above; assay type: cell-based; conditions: Homo sapiens, SK-OV-3, MTT
# Protocol: as §2, §3
# [13] = tested on: NB4 (acute promyelocytic leukemia, AML); test: MTT growth inhibition of leukemia cells, 72 h; assay type: cell-based, human
# Description: (§4) Leukemia cell lines: leukemia cell lines: K562/adr (drug-resistant, chronic myeloid leukemia, CML), NB4 (acute promyelocytic leukemia, AML), Kasumi-1 (acute myeloid leukemia M2 type, AML-M2), Jurkat (acute lymphoblastic leukemia, ALL), all of which are donated by Cancer Research Institute of Zhejiang University, China; and H9 (acute lymphoblastic leukemia, ALL), which is purchased from China Center for Type Culture Collection (CCTCC).
# (§5) Reagents: The standard sample of homoharringtonine (HHT) is purchased from Taihua Natural Plant Pharmaceutical Co., Ltd., Shaanxi, China, the homoharringtonine derivatives of the present invention.
# as §1
# [14] = tested on: Jurkat (acute lymphoblastic leukemia, ALL); test: MTT growth inhibition of leukemia cells, 72 h; assay type: cell-based, human; conditions: Homo sapiens, Jurkat
# Description: as §4, §5, §1
# [15] = tested on: Kasumi-1 (acute myeloid leukemia M2 type, AML-M2); test: MTT growth inhibition of leukemia cells, 72 h; assay type: cell-based, human
# Description: as §4, §5, §1
# [16] = tested on: K562/adr (drug-resistant, chronic myeloid leukemia, CML); test: MTT growth inhibition of leukemia cells, 72 h; assay type: cell-based, human
# Description: as §4, §5, §1
# [17] = tested on: H9 (acute lymphoblastic leukemia, ALL); test: MTT growth inhibition of leukemia cells, 72 h; assay type: cell-based, human
# Description: as §4, §5, §1
compound,measurement,setting,value
COC(=O)C[C@](O)(CCCC(C)(C)OC(=O)Cc1ccccc1)C(=O)O[C@@H]1C(OC)=C[C@]23CCCN2CCc2cc4c(cc2[C@H]13)OCO4 [BS-HH-074],IC50,[1],3 ng/mL
same,IC90,[1],15 ng/mL
same,IC50,[2],2 ng/mL
same,IC90,[2],6 ng/mL
same,IC50,[3],12 ng/mL
same,IC90,[3],80 ng/mL
same,IC50,[4],3 ng/mL
same,IC90,[4],50 ng/mL
same,IC50,[5],15 ng/mL
same,IC90,[5],16000 ng/mL
same,IC50,[6],14 ng/mL
same,IC90,[6],> 16000 ng/mL
same,IC50,[7],3 ng/mL
same,IC90,[7],8380 ng/mL
same,IC50,[8],6 ng/mL
same,IC90,[8],> 16000 ng/mL
same,IC50,"MG63 (osteosarcoma); Homo sapiens, MG-63, MTT",6 ng/mL
same,IC90,"MG63 (osteosarcoma); Homo sapiens, MG-63, MTT",1180 ng/mL
same,anti-MG63 effect relative to homoharringtonine,MG63 (osteosarcoma); vs HHT,substantially superior
same,IC50,"PC-3 (prostate cancer); Homo sapiens, MTT",7.7 ng/mL
same,IC90,"PC-3 (prostate cancer); Homo sapiens, MTT",> 16000 ng/mL
same,anti-PC-3 effect relative to homoharringtonine,PC-3 (prostate cancer); vs HHT,more than 10 fold
same,IC50,"[9]; Homo sapiens, HeLa, MTT",3.4 ng/mL
same,IC90,"[9]; Homo sapiens, HeLa, MTT",12600 ng/mL
same,anti-Hela effect relative to homoharringtonine,[9]; vs HHT,> 5.6 fold
same,IC50,"[10]; Homo sapiens, MTT",1.4 ng/mL
same,IC90,"[10]; Homo sapiens, MTT",> 16000 ng/mL
same,anti-CNE effect relative to homoharringtonine,[10]; vs HHT,> 27 fold
same,IC50,A549 (human lung cancer),7 ng/mL
same,IC90,A549 (human lung cancer),> 16000 ng/mL
same,IC50,[11],6 ng/mL
same,IC90,[11],55 ng/mL
same,IC50,[12],27 ng/mL
same,IC90,[12],> 16000 ng/mL
same,IC50,"[13]; Homo sapiens, MTT",3 ng/mL
same,IC90,"[13]; Homo sapiens, MTT",7 ng/mL
same,improvement of anti-NB4 activity compared with homoharringtonine,[13]; vs HHT,more than 2 fold
same,IC50,[14],3.8 ng/mL
same,IC90,[14],≥ 16000 ng/mL
same,IC50,"[15]; Homo sapiens, Kasumi 1, MTT",1 ng/mL
same,IC90,"[15]; Homo sapiens, Kasumi 1, MTT",5 ng/mL
same,improvement of anti-Kasumi-1 activity compared with homoharringtonine,[15]; vs HHT,more than 5 fold
same,IC50,"[16]; Homo sapiens, K562/Adr, MTT",7 ng/mL
same,IC90,"[16]; Homo sapiens, K562/Adr, MTT",14100 ng/mL
same,improvement of anti-K562/adr activity compared with homoharringtonine,[16]; vs HHT,more than 5 fold
same,IC50,"[17]; Homo sapiens, MTT",4 ng/mL
same,IC90,"[17]; Homo sapiens, MTT",10 ng/mL
same,improvement of anti-H9 activity compared with homoharringtonine,[17]; vs HHT,more than 2 fold
